A short description of series [1]: log P by HPLC on reversed-phase column (EEC Directive 79/831 Annex V.A8). The format is physicochemical. To be noted: reversed-phase C18 HPLC column, pH 2.3, 43° C. As to the method:
The log P values given in the preparation examples and tables above are determined in accordance with EEC Directive 79/831 Annex V.A8 by HPLC (High Performance Liquid Chromatography) on a reversed-phase column (C 18). Temperature: 43° C.
In the acidic range, determination is carried out at pH 2.3 using the mobile phases 0.1% aqueous phosphoric acid and acetonitrile; linear gradient from 10% acetonitrile to 90% acetonitrile (in the tables marked with a)).
Calibration is carried out using unbranched alkan-2-ones (of 3 to 16 carbon atoms) with known lop P values (determination of the log P values by the retention times using linear interpolation between two successive alkanones).

For another series, the system named is Plutella xylostella. Nature of the series: Plutella test. The format is in vivo. The settings on record: 20 ppm, cabbage leaves dipped. As for the experimental part:
(§1) To produce a suitable preparation of active compound, 1 part by weight of active compound is mixed with the stated amounts of solvent and emulsifier, and the concentrate is diluted with emulsifier-containing water to the desired concentration.
Cabbage leaves (Brassica oleracea) are treated by being dipped into the preparation of active compound of the desired concentration and are populated with caterpillars of the diamondback moth (Plutella xylostella) while the leaves are still moist.
(§2) After the desired period of time, the kill in % is determined. 100% means that all caterpillars have been killed; 0% means that none of the caterpillars have been killed.

In series [2] the test system is Lucilia cuprina 1st instar larvae. Nature of the series: Blowfly larval assay (Lucilia cuprina). The format is in vivo. To be noted: 100 ppm. As for the experimental part: (§3) 10 mg active compound are dissolve in 0.5 ml dimethyl sulphoxide. Serial dilutions are made to obtain the desired rates.
Approximately 20 Lucilia cuprina 1st instar larvae are transferred into a test tube containing 1 cm^3 of minced horse meat and 0.5 ml aqueous dilution of test compound. After 48 hrs percentage of larval mortality are recorded.
100% efficacy=all larvae are killed 0% efficacy=normally developed larvae after 48 hrs

The subject of series [3] is Boophilus microplus (SP-resistant Parkhurst strain). Nature of the series: Boophilus microplus test (INJ), resistant cattle tick, injection method. The format is in vivo. The settings on record: concentration of active compound 20 μM, injection into abdomen of adult satiated females. As to the method:
Test with Resistant Monoxenic Cattle Tick/SP-Resistant Parkhurst Strain Injection Method
Boophilus microplus (INJ)
10 mg active compound are dissolve in 0.5 ml Dimethylsulfoxid. Serial dilutions are made to obtain the desired rates.
The test is carried out in 5 replications. 1 μl of the solutions is injected into the abdomen, and the animals are transferred to dishes and kept in a climate-controlled room. After 7 days, activity is checked by examination for deposition of fertile eggs. Eggs whose fertility is not externally visible are stored in glass tubes in a controlled-environment cabinet until the larvae have hatched after ca. 24 days. An activity of 100% denotes that none of the ticks has laid fertile eggs.

A further series deals with Musca domestica. Nature of the series: Housefly assay (Musca domestica). To be noted: 100 ppm, adult flies. Type of series: in vivo. As for the experimental part:
as §3
Prior to the assay, a piece of kitchen sponge (ca. Ø 1.5 cm) is soaked with 0.8 ml of sugar solution and 0.2 ml of aqueous compound dilution and is placed into a container (4×4×2 cm). 10 adult Musca domestica flies (WHO/N strain) are anaesthetized by CO2 and also placed into the container. The container is closed with a perforated lid. […]
100% efficacy=all flies are killed 0% efficacy=no flies are killed

The next series deals with Tetranychus urticae. The experiment in a line: Tetranychus test (OP-resistant/spray application). To be noted: 100 g/ha, spray on bean leaf slices. The format is in vivo. As to the method:
Tetranychus test (OP-Resistant/Spray Application)
as §1
Bean leave slices (Phaseolus vulgaris), which are infested with all stages of the two-spotted spider mite (Tetranychus urticae), are treated by being sprayed with the preparation of the active compound of the desired concentration.
(§4) After the specified period of time, the mortality in % is determined. 100% means that all the […] have been killed; 0% means that none of the […] have been killed.

The next series deals with Myzus persicae. The experiment in a line: Myzus test (spray application). Type of series: in vivo. To be noted: topical, 120 h, spray on Chinese cabbage leaves, after 5 d, read-out: Kill rate in % after 5 d. As to the method:
Myzus Test (Spray Application)
as §1
Chinese cabbage leaves (Brassica pekinensis), which are infested by the green peach aphid (Myzus persicae), are treated by being sprayed with the preparation of the active compound of the desired concentration.
as §4

The next series deals with Spodoptera exigua. The experiment in a line: Spodoptera exigua test. Type of series: in vivo. The settings on record: 168 h, cabbage leaves dipped, after 7 d, read-out: Kill rate in % after 7 d. As to the method: as §1
Cabbage leaves (Brassica oleracea) are treated by being dipped into the preparation of active compound of the desired concentration and are populated with caterpillars of the army worm (Spodoptera exigua) while the leaves are still moist.
as §2

Another series relates to Spodoptera frugiperda. Nature of the series: Spodoptera frugiperda test (spray application). The format is in vivo. To be noted: topical, 168 h, 20 g/ha, spray on maize leaf slices, after 7 d, read-out: Kill rate in % after 7 d. As to the method:
Spodoptera frugiperda Test (Spray Application)
as §1
Maize leave slices (Zea mays) are treated by being sprayed with the preparation of the active compound of the desired concentration and are infested with caterpillars of the fall army worm (Spodoptera frugiperda) after the leaves have dried.
as §4

SMILES strings stand for the structures.

By chromatographic logP is commonly meant lipophilicity estimated from chromatographic retention. High values mean higher lipophilicity, low ones lower lipophilicity. What is called melting point is the temperature, or range, at which the solid turns liquid.

`Cc1cc(C(C(F)F)C(F)(F)F)ccc1N` (stereo not shown) [4-(1-Difluoromethyl-2,2,2-trifluoro-ethyl)-2-methyl-phenylamine] returned a chromatographic logP in [1] of 2.02.
The same measure, in the same setting: the same measure for `CSC[C@H](C)N=C1OC(=O)c2cccc(I)c21` [4-Iodo-3-[(S)-1-methyl-2-methylsulfanyl-ethylimino]-3H-isobenzofuran-1-one]: 3.87.
`CSC[C@H](C)NC(=O)c1c(Cl)cccc1C(=O)Nc1ccc(C(F)(C(F)(F)F)C(F)(F)Br)cc1C` (stereo partly shown) [Compound 38]: the melting point lay within 184 to 186 °C. The “Kill rate in % after 7 d” value in the series on Plutella xylostella is recorded as 100%.
With `CSC[C@H](C)NC(=O)c1c(I)cccc1C(=O)Nc1ccc(C(C(F)F)C(F)(F)F)cc1C` (stereo partly shown) [Compound 11], the melting point stood at 184 °C. Moreover, in the series on Plutella xylostella, the “Kill rate in % after 7 d” value worked out at 100%.
As to `CCS(=O)(=O)C[C@H](C)NC(=O)c1c(I)cccc1C(=O)Nc1ccc(C(F)(C(F)F)C(F)(F)F)cc1F` (stereo partly shown) [Compound 36], the “Kill rate in % after 2 d” value in series [2] came out at 100%.
Compound `CCSC[C@H](C)NC(=O)c1c(I)cccc1C(=O)Nc1ccc(C(C(F)F)C(F)(F)F)cc1Br` (stereo partly shown) [Compound 24] gave a melting point of 160 °C. For the same compound, the “Kill rate in % after 7 d” value in series [3] was determined as 100%.
Take `C[C@@H](CS(C)(=O)=O)NC(=O)c1c(I)cccc1C(=O)Nc1ccc(C(C(F)F)C(F)(F)F)cc1F` (stereo partly shown) [Compound 33]: the melting point was in the range of 144 to 147 °C. Besides, in the series on Musca domestica, the “Kill rate in % after 4 d” value was found to be 100%. For the same compound, in series [3], the “Kill rate in % after 7 d” value was 100%.
Turning to `CCSC[C@H](C)NC(=O)c1c(I)cccc1C(=O)Nc1ccc(C(C(F)F)C(F)(F)F)cc1Cl` (stereo partly shown) [Compound 23], the melting point was determined as 165 °C. In [3], the “Kill rate in % after 7 d” value was 100%.
As for `CCS(=O)(=O)C[C@H](C)NC(=O)c1c(I)cccc1C(=O)Nc1ccc(C(C(F)F)C(F)(F)F)cc1F` (stereo partly shown) [Compound 37], the “Kill rate in % after 2 d” value in [2] is given as 100%.
`Cc1cc(C(F)(C(F)F)C(F)(F)F)ccc1N` (stereo not shown) [4-(1-Difluoromethyl-1,2,2,2-tetrafluoro-ethyl)-2-methyl-phenylamine] yielded a chromatographic logP in series [1] of 2.74.
In the case of `CSC[C@H](C)NC(=O)c1c(Cl)cccc1C(=O)Nc1ccc(C(C(F)F)C(F)(F)F)cc1Cl` (stereo partly shown) [Compound 42], the “Kill rate in % after 5 d” value in the series on Tetranychus urticae worked out at 80%.
As to `C[C@@H](CS(C)(=O)=O)NC(=O)c1c(I)cccc1C(=O)Nc1ccc(C(F)(C(F)F)C(F)(F)F)cc1F` (stereo partly shown) [Compound 32], the “Kill rate in % after 4 d” value in the series with Musca domestica was 100%. Moreover, the “Kill rate in % after 2 d” value in [2] stood at 100%.
Compound `CSC[C@H](C)NC(=O)c1c(Br)cccc1C(=O)Nc1ccc(C(F)(C(F)F)C(F)(F)F)cc1Br` (stereo partly shown) [Compound 67] showed a melting point of 138 to 142 °C. In addition, in the series with Plutella xylostella, the “Kill rate in % after 7 d” value is reported as 100%.
Turning to `CCSC[C@H](C)NC(=O)c1c(I)cccc1C(=O)Nc1ccc(C(C(F)F)C(F)(F)F)cc1C` (stereo partly shown) [Compound 4], the “Kill rate in % after 2 d” value in [2] is 100%. In series [3], the “Kill rate in % after 7 d” value was 100%.
Take `C[C@@H](CS(C)(=O)=O)NC(=O)c1c(I)cccc1C(=O)Nc1ccc(C(C(F)F)C(F)(F)F)cc1Br` (stereo partly shown) [Compound 31]: the “Kill rate in % after 4 d” value in the series with Musca domestica was 100%. In addition, in the series with Myzus persicae, the pest or weed control at 100 g/ha came to 100%.
In turn, `CCSC[C@H](C)NC(=O)c1c(I)cccc1C(=O)Nc1ccc(C(C(F)F)C(F)(F)F)cc1F` (stereo partly shown) [Compound 21] returned a melting point of 144 °C. Also, the “Kill rate in % after 4 d” value with Musca domestica was found to be 100%.
In turn, `Cc1cc(C(F)(C(F)(F)F)C(F)(F)Br)ccc1NC(=O)c1cccc(I)c1C(=O)N[C@@H](C)CS(C)(=O)=O` (stereo partly drawn) [Compound 19, N^1-[4-(2-Bromo-1,2,2-trifluoro-1-trifluoromethyl-ethyl)-2-methyl-phenyl]-3-iodo-N^2-[2-methanesulfonyl-(S)-1-methyl-ethyl]-phthalamide] returned a melting point of 128 °C. Besides, the pest or weed control at 20 ppm in the series on Spodoptera exigua stood at 100%.
`CCSC[C@H](C)NC(=O)c1c(I)cccc1C(=O)Nc1ccc(C(F)(C(F)(F)F)C(F)(F)Br)cc1C` (stereo partly shown) [Compound 1]: the “Kill rate in % after 2 d” value in series [2] is listed as 100%.
In turn, `CCS(=O)(=O)C[C@H](C)NC(=O)c1c(I)cccc1C(=O)Nc1ccc(C(C(F)F)C(F)(F)F)cc1Br` (stereo partly shown) [Compound 35] yielded a melting point of 122 °C. The “Kill rate in % after 4 d” value in the series on Musca domestica turned out to be 100%.
Take `CCS(=O)(=O)C[C@H](C)NC(=O)c1c(Br)cccc1C(=O)Nc1ccc(C(F)(C(F)F)C(F)(F)F)cc1Br` (stereo partly shown) [Compound 69]: the pest or weed control at 20 g/ha in the series on Spodoptera frugiperda was determined as 100%. The “Kill rate in % after 2 d” value in series [2] is recorded as 100%.
`CCSC[C@H](C)NC(=O)c1c(I)cccc1C(=O)Nc1ccc(C(F)(C(F)F)C(F)(F)F)cc1F` (stereo partly shown) [Compound 8] registered a melting point of 138 to 141 °C. Also, the pest or weed control at 20 ppm in the series with Spodoptera exigua was 100%.
Consider `Cc1cc(C(F)(C(F)F)C(F)(F)F)ccc1NC(=O)c1cccc(Cl)c1C(=O)N[C@@H](C)CS(C)(=O)=O` (stereo partly shown) [Compound 44], for which the “Kill rate in % after 7 d” value in the series on Plutella xylostella came out at 100%. Besides, the “Kill rate in % after 5 d” value with Tetranychus urticae was determined as 80%.
On to `Cc1cc(C(F)(C(F)F)C(F)(F)F)ccc1NC(=O)c1cccc(I)c1C(=O)N[C@@H](C)CS(C)(=O)=O` (stereo partly shown) [Compound 18], for which the melting point was 124 °C. Moreover, the “Kill rate in % after 7 d” value in the series with Plutella xylostella is 100%.
Compound `CCSC[C@H](C)NC(=O)c1c(I)cccc1C(=O)Nc1ccc(C(F)(C(F)F)C(F)(F)F)cc1C` (stereo partly shown) [Compound 5] returned a melting point of 105 °C. Also, in the series on Musca domestica, the “Kill rate in % after 4 d” value stood at 100%. The “Kill rate in % after 7 d” value in series [3] was found to be 100%.
Compound `C[C@@H](CS(C)(=O)=O)NC(=O)c1c(I)cccc1C(=O)Nc1ccc(C(F)(C(F)F)C(F)(F)F)cc1Cl` (stereo partly shown) [Compound 27] gave a melting point of 184 °C. The pest or weed control at 20 ppm with Spodoptera exigua turned out to be 100%.
For `CCS(=O)(=O)C[C@H](C)NC(=O)c1c(I)cccc1C(=O)Nc1ccc(C(F)(C(F)F)C(F)(F)F)cc1Br` (stereo partly shown) [Compound 34] the same measures were 134 °C and 100%.
`C[C@@H](CS(C)(=O)=O)NC(=O)c1c(I)cccc1C(=O)Nc1ccc(C(C(F)F)C(F)(F)F)cc1Cl` (stereo partly shown) [Compound 28]: the melting point is 116 to 120 °C. For the same compound, the “Kill rate in % after 4 d” value in the series on Musca domestica was found to be 100%.
In turn, `CCSC[C@H](C)NC(=O)c1c(Br)cccc1C(=O)Nc1ccc(C(C(F)F)C(F)(F)F)cc1Cl` (stereo partly shown) [Compound 54] gave a melting point of 100 °C. Further, the “Kill rate in % after 7 d” value with Plutella xylostella was 100%.
`CCS(=O)(=O)C[C@H](C)NC(=O)c1c(I)cccc1C(=O)Nc1ccc(C(F)(C(F)F)C(F)(F)F)cc1Cl` (stereo partly shown) [Compound 25]: the “Kill rate in % after 2 d” value in series [2] came out at 90%.

The values above are taken from patent publication US20090118375A1, “Optically active phthalamides” (priority 2004, published 2009).
